Data published in PubChem BioAssay AID1963429 (Molecular Pharmacology Branch, DTP, NCI, 2024).
Where “and” joins values, the source holds several entries; their conditions need not be identical. Equal values may be shown once.

Test system: 126254-015-R-J1-PDC complex spheroid growth, % test/control
Assay: Anticancer human tumor 126254-015-R-J1-PDC patient-derived soft tissue sarcoma cell line growth inhibition [Asc]
Conditions: for viability, T/C: stronger effect = lower value; active means viability on the fitted dose curve at most 10% of control; inactive means the rest
Experimental: Multicellular complex tumor spheroid response to apoptosis pathway targeting inhibitors Alrizomadlin, Pelcitoclax, and Dasminapant in combination with a variety of drugs and investigational agents in selected tumor cell lines
The MDM2 inhibitor alrizomadlin, the Bcl-2/Bcl-xL inhibitor pelcitoclax, and the IAPs inhibitor dasminapant were evaluated both individually and in combination with standard of care and investigational anticancer small molecules within a complex spheroid model of solid tumors. . Complex spheroids include a stromal component modeled by human endothelial cells (HUVEC) and fibroblasts modeled by human mesenchymal stem cells (MSCs). The concentration ranges selected for each drug and investigational agent were based upon clinically achievable concentrations if the clinical Cmax of the agent was known.
Compounds. The drugs and investigational agents: alrizomadlin (APG-115; NSC831270), pelcitoclax (APG-1252; NSC835773), dasminapant (APG-1387;NSC834197), TAK-243 (NSC785004), copanlisib (NSC809693), olaparib (NSC753686), talazoparib (NSC767125), cobimetinib (NSC 768068), eltanexor (KPT-8602, NSC 794443), abemaciclib (NSC 768073), sotorasib (NSC818433), adagrasib (NSC 831453), MRTX-1133 (NSC 836407), Iadademestat (ORY1001, NSC 806812), and RMC-4630 (NSC839698), were obtained from the NCI Developmental Therapeutics Program Chemical Repository. The FDA-approved anticancer drug set is available from the Developmental Therapeutics Program at https://dtp.cancer.gov/organization/dscb/obtaining/available plates.htm. […] The stock solutions were prepared in dimethyl sulfoxide (DMSO, Sigma-Aldrich, St. Louis, MO, cat. D2650) at 800-fold the tested concentration and stored at -70 degrees C prior to their use. All drugs and investigational agents were tested over a range starting from a high concentration at or near the clinical Cmax and decreasing in half-log increments. If the clinical Cmax for an agent had not been determined, the highest concentration tested was 10 microM.
The patient-derived cancer (PDC) cell lines include five colon adenocarcinomas: 186277-243-T-J2-PDC, 616215-338-R-J1-PDC, 439559-082-T-J2-PDC, 463943-066-T-J2-PDC, and 519858-162-T-J1-PDC; three pancreatic carcinomas: 323965-272-R-J2-PDC, 521955-158-R6-J3-PDC, and 521955-158-R2-J5-PDC; two uterine sarcomas: 327498-152-R-J2-PDC and 993429-296-R-J1-PDC; two rhabdomyosarcomas: 755483-174-R-J1-PDC and 772245-204-R-J1-PDC; two soft tissue sarcomas: 126254-015-R-J1-PDC and 494315-158-R-J1-PDC; two malignant fibrous histiocytomas: 317291-083-R-J1-PDC and 596521-263-R-J1-PDC; two breast carcinomas: 171881-019-R-J1-PDC and 885512-296-R-J2-PDC; and one ovarian carcinoma: 6556581-035-R-J-PDC were obtained from the NCI PDMR, (https://pdmr.cancer.gov). The established cell lines HSSY-2 synovial sarcoma (RRID:CVCL 8719), SYO-1 synovial sarcoma (RRID:CVCL_7146), MPNST malignant peripheral neural sheath tumor were obtained from the Sloan Kettering Institute. The following established cell lines were purchased from the American Type Culture Collection (ATCC, Manassas, VA), Sor the received from the NCI repository:, PANC-1 pancreatic carcinoma (CRL-1469, RRID:CVCL_0480), OVCAR-5 ovarian carcinoma (RRID:CVCL_1628), OVCAR-8 ovarian carcinoma (RRID:CVCL_1629), , MCF-7 breast carcinoma (CRL-12584, RRID:CVCL_0031), MDA-MB-231 breast carcinoma (CRL-12532, RRID:CVCL_0062), NCI-H1876 small cell lung carcinoma (CRL-5902, RRID:CVCL_1503), NCI-H510A small cell lung carcinoma (HTB-184, RRID:CVCL_1565), NCI-H1417 (CRL-5869, RRID:CVCL_1469), and NCI-H196 small cell lung carcinoma (CRL-5823, RRID:CVCL_1509). Dr. Peter Houghton (Greehey Children's Cancer Research Institute, University of Texas Health Science Center, San Antonio, TX) provided Rh-18 rhabdomyosarcoma (RRID:CVCL_1659). Pooled donor human umbilical vein endothelial cells (HUVEC, Lonza, cat. CC-2519) and human mesenchymal stem cells (hMSC, Lonza, cat. PT-2501) were purchased from Lonza (Walkersville, MD).
Cell Culture. […]
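Further: spheroids exposed to compound for seven days.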
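Wherever viability, T/C is given: 100% = DMSO vehicle control wells.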

O=C(c1cc(Cc2n[nH]c(=O)c3ccccc23)ccc1F)N1CCN(C(=O)C2CC2)CC1 + CCN1C(C(=O)NC23CCC(C(=O)O)(CC2)CC3)C(c2cccc(Cl)c2F)C2(C(=O)Nc3cc(Cl)ccc32)C12CCCCC2
> 10 µM: IC50 (curve of first compound, second compound 0.03 µM) | IC50 (curve of first compound, second compound 0.0949 µM) | IC50 (curve of first compound, second compound 0.3 µM) | IC50 (curve of first compound, second compound 0.949 µM) | IC50 (curve of first compound, second compound 3 µM)
inactive: viability, T/C (second compound 0.03 µM, first compound 0.0316 µM) 95.7% | viability, T/C (second compound 0.03 µM, first compound 0.1 µM) 87.7% | viability, T/C (second compound 0.03 µM, first compound 0.316 µM) 90.3% | viability, T/C (second compound 0.03 µM, first compound 1 µM) 74.5% | viability, T/C (second compound 0.03 µM, first compound 3.16 µM) 84.1% | viability, T/C (second compound 0.03 µM, first compound 10 µM) 60% | viability, T/C (second compound 0.0949 µM, first compound 0.0316 µM) 95.5% | viability, T/C (second compound 0.0949 µM, first compound 0.1 µM) 100% | viability, T/C (second compound 0.0949 µM, first compound 0.316 µM) 87.7% | viability, T/C (second compound 0.0949 µM, first compound 1 µM) 97.4% | viability, T/C (second compound 0.0949 µM, first compound 3.16 µM) 83.2% | viability, T/C (second compound 0.0949 µM, first compound 10 µM) 59.2% | viability, T/C (second compound 0.3 µM, first compound 0.0316 µM) 98.4% | viability, T/C (second compound 0.3 µM, first compound 0.1 µM) 90.9% | viability, T/C (second compound 0.3 µM, first compound 0.316 µM) 92.2% | viability, T/C (second compound 0.3 µM, first compound 1 µM) 83.6% | viability, T/C (second compound 0.3 µM, first compound 3.16 µM) 77.2% | viability, T/C (second compound 0.3 µM, first compound 10 µM) 59% | viability, T/C (second compound 0.949 µM, first compound 0.0316 µM) 90% | viability, T/C (second compound 0.949 µM, first compound 0.1 µM) 97% | viability, T/C (second compound 0.949 µM, first compound 0.316 µM) 93.6% | viability, T/C (second compound 0.949 µM, first compound 1 µM) 83.9% | viability, T/C (second compound 0.949 µM, first compound 3.16 µM) 73.8% | viability, T/C (second compound 0.949 µM, first compound 10 µM) 59.3% | viability, T/C (second compound 3 µM, first compound 0.0316 µM) 88.8% | viability, T/C (second compound 3 µM, first compound 0.1 µM) 90.5% | viability, T/C (second compound 3 µM, first compound 0.316 µM) 93.7% | viability, T/C (second compound 3 µM, first compound 1 µM) 85.4% | viability, T/C (second compound 3 µM, first compound 3.16 µM) 73.1% | viability, T/C (second compound 3 µM, first compound 10 µM) 70.5%

O=C(c1cc(Cc2n[nH]c(=O)c3ccccc23)ccc1F)N1CCN(C(=O)C2CC2)CC1
inactive: viability, T/C (compound 0.0316 µM) 95.9% and 107% and 96.9% | viability, T/C (compound 0.1 µM) 93.1% and 96.8% and 103% | viability, T/C (compound 0.316 µM) 88.4% and 102% (2×) | viability, T/C (compound 1 µM) 86.6% and 93.3% and 97.7% | viability, T/C (compound 3.16 µM) 79.3% and 83.1% and 87.7% | viability, T/C (compound 10 µM) 64.2% and 68.1% and 68.5%
> 10 µM: IC50 (curve of compound)

C=CC(=O)N1CCN(c2nc(=O)n(-c3c(C)ccnc3C(C)C)c3nc(-c4c(O)cccc4F)c(F)cc23)C(C)C1 (configuration not stated) + CNC(C)C(=O)NC1CN(S(=O)(=O)c2cccc(S(=O)(=O)N3CCC4CCC(C(=O)NC(c5ccccc5)c5ccccc5)N4C(=O)C(NC(=O)C(C)NC)C3)c2)CCC2CCC(C(=O)NC(c3ccccc3)c3ccccc3)N2C1=O
inactive: viability, T/C (second compound 0.01 µM, first compound 0.0316 µM) 94.4% | viability, T/C (second compound 0.01 µM, first compound 0.1 µM) 99.5% | viability, T/C (second compound 0.01 µM, first compound 0.316 µM) 94.5% | viability, T/C (second compound 0.01 µM, first compound 1 µM) 110% | viability, T/C (second compound 0.01 µM, first compound 3.16 µM) 101% | viability, T/C (second compound 0.01 µM, first compound 10 µM) 82.3% | viability, T/C (second compound 0.0316 µM, first compound 0.0316 µM) 85.1% | viability, T/C (second compound 0.0316 µM, first compound 0.1 µM) 84.8% | viability, T/C (second compound 0.0316 µM, first compound 0.316 µM) 86.7% | viability, T/C (second compound 0.0316 µM, first compound 1 µM) 84.2% | viability, T/C (second compound 0.0316 µM, first compound 3.16 µM) 87.1% | viability, T/C (second compound 0.0316 µM, first compound 10 µM) 75.2% | viability, T/C (second compound 0.1 µM, first compound 0.0316 µM) 70.7% | viability, T/C (second compound 0.1 µM, first compound 0.1 µM) 78% | viability, T/C (second compound 0.1 µM, first compound 0.316 µM) 81.5% | viability, T/C (second compound 0.1 µM, first compound 1 µM) 75.7% | viability, T/C (second compound 0.1 µM, first compound 3.16 µM) 82.7% | viability, T/C (second compound 0.1 µM, first compound 10 µM) 67.3% | viability, T/C (second compound 0.316 µM, first compound 0.0316 µM) 69.2% | viability, T/C (second compound 0.316 µM, first compound 0.1 µM) 77.2% | viability, T/C (second compound 0.316 µM, first compound 0.316 µM) 71.5% | viability, T/C (second compound 0.316 µM, first compound 1 µM) 70.9% | viability, T/C (second compound 0.316 µM, first compound 3.16 µM) 73.9% | viability, T/C (second compound 0.316 µM, first compound 10 µM) 67.7% | viability, T/C (second compound 1 µM, first compound 0.0316 µM) 62.8% | viability, T/C (second compound 1 µM, first compound 0.1 µM) 72.4% | viability, T/C (second compound 1 µM, first compound 0.316 µM) 67.5% | viability, T/C (second compound 1 µM, first compound 1 µM) 72% | viability, T/C (second compound 1 µM, first compound 3.16 µM) 70.3% | viability, T/C (second compound 1 µM, first compound 10 µM) 65.5%
> 10 µM: IC50 (curve of first compound, second compound 0.01 µM) | IC50 (curve of first compound, second compound 0.0316 µM) | IC50 (curve of first compound, second compound 0.1 µM) | IC50 (curve of first compound, second compound 0.316 µM) | IC50 (curve of first compound, second compound 1 µM)
